# Test results from patent US6916843B1, “Anti-inflammatory actions of cytochrome P450 expoxygenase-derived eicosanoids” (The United States of America as represented by the …, priority 1999, dated 2005).
# Entries after “also recorded” stand apart in the source; their conditions may differ. Peptide text beside a SMILES is read from it. * marks the point of attachment. Cbz = O=C(OCc1ccccc1)*
# Assays:
# IκB-α = assay: Fate of IκB-α after TNF-α stimulation of human endothelial cells; type: cell-based; settings: TNF-α 10 ng/ml, 15 min; EET 100 nM
# From the text: Co-treatment with [11,12]-EET prevented the nuclear accumulation of RelA. Since the nuclear translocation of RelA requires the degradation of its endogenous cytoplasmic inhibitor, inhibitor kappa B (IκB-α), we followed the fate of IκB-α after TNF-α stimulation in the presence or absence of [11,12]-EET. Stimulation of human endothelial cells with TNF-α caused a rapid and almost complete disappearance of IκB-α which was prevented by co-treatment with [11,12]-EET, but not [14,15]-EET.
# A set of gel shift assays was performed. […] In some assays, [11,12]-EET (100 nM) was also added directly to the IKK assay (in vitro). As a control for nonspecific phosphorylation, the assay was performed without the addition of immunoprecipitated IKK (no enzyme) or in the presence of a IκB-α mutant (ΔSer 32, Ser 36→Thr) as substrate. The assay was performed three times with similar results.
# Specificity of IKB was determined by the complete absence of phosphorylation when the mutated IκB-α substrate, GST-1κB-α (Δ32,36: S→T) which cannot be phosphorylated at serine residues 32 and 36, was substituted for wild-type GST-IκB-α.
# [1] = system: mononuclear cell adhesion to carotid artery; assay: TNF-α-induced mononuclear cell (U937) adhesion in the murine carotid artery; type: in vivo; settings: mouse, intra-arterial infusion 100 ng/kg/min, TNF-α 10 μg/kg i.p., 5 hours
# Method: FIG. 3A is a graph showing the expression of VCAM-1 in the murine carotid artery at 5 hours after treatment with intraperitaneal injection of TNF-α (10 μg/kg) alone or in combination with continuous intra-arterial infusion of [11,12]-EET (100 ng/kg/min). FIG. 3B is a bar graph showing the effect of [11,12]-EET on TNF-α induced mononuclear cell adhesion in the murine carotid artery. The mononuclear cells (U937) were perfused through the carotid artery at a wall shear stress of 3 dyn/cm^2. Intra-arterial infusion of vehicle (saline) or [14,15]-EET (100 ng/kg/min) had no effect. […] All experiments except the [14,15]-EET infusion were performed in duplicate.
# To determine the functional relevance of EETs in vascular inflammation, we tested [11,12]-EET and its regioisomer [14,15]-EET in a recently developed in vivo model of TNF-α-induced VCAM-1 -mediated mononuclear cell adhesion in the murine carotid artery. […]
# Cell rolling and adhesion were recorded on videotape using stroboscopic epifluoresence illumination with an introvital microscope (objective Zeiss 20×, 0.5 numerical aperture). […] In separate experiments, VCAM-1 expression was measured in paraffin-sections (5 μm thick) of carotid arteries harvested from mice treated in the same way. […]
# VCAM-1 expression = assay: Cell-surface enzyme immunoassay of cytokine-induced VCAM-1 expression in endothelial cells; type: cell-based, human; settings: human endothelial cells, 1-100 nM, TNF-α
# Method: FIG. 2 is a set of bar graphs of cell-surface enzyme immunoassays. […] The difference between treatment with TNF-α alone and in the presence of [11,12]-EET were statistically significant (*p<0.05, **p<0.01), OD, optical density. […] After stimulation with TNF-α (10 ng/ml) in the presence or absence of EET, promoter activity was determined relative to basal activity. *p<0.01 vs. TNF-α alone.
# To determine the biological effects of EETs, we treated tumor necrosis factor alpha (TNF-α)-stimulated human endothelial cells with physiological relevant concentrations (1-100 nM) of [5,6]-EET, [8,9]-EET, [11,12]-EET, [14,15]-EET, [11,12]-DHET.
# [2] = system: bovine aortic endothelial cells (BAECs); assay: Hypoxia-reoxygenation-induced cell injury in BAECs (cell number, LDH release, trypan blue); type: cell-based; settings: 1 μmol/L, added 10 min prior to hypoxia (24 h hypoxia, 4 h reoxygenation)
# Method: Effects of P450-derived arachidonic acid metabolites on hypoxia-reoxygenalion-induced injury in BAECs. BAECs, either untransfected, or 48 hours after transfection with pcDNA3.1/GFP or pcDNA3.1/CYP2J2, or 10 min after treatment with eicosanoids, epoxide hydrolase inhibitors or vehicle, were exposed to hypoxia (95% nitrogen plus 5% carbon dioxide) for 24 hours, followed by reoxygenation (95% air plus 5% carbon dioxide) for 4 hours using an environmental chamber within a 37° C. incubator. Cells maintained under continuous (28 hours) normoxic conditions served as controls.
# EETs were prepared by total chemical synthesis as previously described (Corey el al., 102 J. Am. Chem. Soc. 1433-1435 (1980), Falck et al., 23 Tetrahedron Lett. 1755-1756 (1982)). DHETs were prepared by chemical hydration of EETs as described by Capdevila et al., 187 Methods Enzymol. 386-394 (1990). Synthetic EETs and DHETs were purified by reverse-phase HPLC prior to use. BAECs, grown to ˜85% confluency, were treated with either synthetic [11,12]-EET, [11,12]-DHET, or [14,15]-EET in ethanol vehicle (1 μmol/L each, final concentration) for 10 min prior to exposure to hypoxia-reoxygenation. […] Cells treated with vehicle alone served as controls.
# After hypoxia-reoxygenation, the cell number was determined using a hemocytometer and the degree of cell injury was assessed by measuring lactate dehydrogenase release into the culture medium using the CytoTox 96 Non-Radioactive Cytotoxicity Assay Kit (Promega, Madison, Wis.) and by counting the number of trypan blue dye stained cells. Data are expressed as a percentage of values obtained from control cells maintained under normoxic conditions.
# [3] = target: purified GST-IκB-α fusion protein (wild-type) (UniProt P25963)
# [4] = target: mutated IκB-α substrate GST-IκB-α (Δ32,36: S→T) (UniProt P25963)
# Sequence of mutated IκB-α substrate GST-IκB-α (Δ32,36: S→T) (P25963 other isoform, or with tags, fused parts or gaps mutant): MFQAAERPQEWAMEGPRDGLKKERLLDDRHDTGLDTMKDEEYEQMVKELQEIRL
# Sequence of purified GST-IκB-α fusion protein (wild-type) (P25963 1-54): as the sequence (P25963 other isoform, or with tags, fused parts or gaps mutant) above, with T32S, T36S counted along it
compound,measurement,setting,value
"CC(C)C[C@@H](C=O)NC(=O)[C@H](CC(C)C)NC(=O)[C@H](CC(C)C)NC(=O)OCc1ccccc1 [MG132, reference compound] (Cbz-Leu-Leu-Leu-aldehyde)",effect on TNF-α-induced disappearance/degradation of IκB-α,IκB-α,prevented
"CCCCCC1OC1C/C=C\C/C=C\C/C=C\CCCC(=O)O (stereo not drawn) [[14,15]-EET]",mononuclear cell adhesion to the vessel wall,[1],had no effect
same,inhibition of TNF-α-induced VCAM-1 expression (rank/words),VCAM-1 expression,did not inhibit
same,"hypoxia-reoxygenation-induced cell injury, number of trypan blue stained cells",[2],active in attenuating; also recorded: significantly attenuates
IκB kinase (IKK) immunoprecipitated from human endothelial cells,IKK activity (phosphorylation of GST-IκB-α substrate),[3],Stimulation with TNF-α caused an increase in IKK activity
same,IKK activity (phosphorylation of mutated substrate),[4],"complete absence of phosphorylation when the mutated IκB-α substrate, GST-1κB-α (Δ32,36: S→T) which cannot be phosphorylated at serine residues 32 and 36, was substituted for wild-type GST-IκB-α"
